Results from the NIST ThermoML archive (doi:10.1016/j.tca.2015.09.001).

Assay: molar heat capacity at constant pressure
Conditions: 101.33 kPa, Crystal, Small sample (50 mg) DSC

c12c3c4c5c1c1c6c7c2c2c8c3c3c9c4c4c%10c5c5c1c1c6c6c%11c7c2c2c7c8c3c3c8c9c4c4c9c%10c5c5c1c1c6c6c%11c2c2c7c3c3c8c4c4c9c5c1c1c6c2c3c41 [buckminsterfullerene]
Conditions	molar heat capacity at constant pressure [J/K/mol]
298.15 K	535.8
300 K	538.6
350 K	648.1
400 K	742
450 K	830.1
500 K	917.4
